Laboratory results taken from patent US6864219B2, “Substituted aryl ketones” (Bayer Aktiengesellschaft, priority 2000, dated 2005).

Test: log P determination by HPLC on reversed-phase column (C 18), EEC Directive 79/831 V.A8
Type: physicochemical
Details: labelled a): acidic range, 0.1% aqueous phosphoric acid/acetonitrile gradient, 43° C.
Experimental: The log P values given in Table 1 were determined in accordance with EEC Directive 79/831 V.A8 by HPLC (High Performance Liquid Chromatography) on a reversed-phase column (C 18). Temperature: 43° C.
(a) Mobile phases for the determination in the acidic range: 0.1% aqueous phosphoric acid, acetonitrile; linear gradient of 10% acetonitrile to 90% acetonitrile—the corresponding data in Table 1 are labelled ^a).
(b) Mobile phases for the determination in the neutral range: 0.01 molar aqueous phosphate buffer solution, acetonitrile, linear gradient from 10% acetonitrile to 90% acetonitrile—the corresponding data in Table 1 are labelled ^b).

Row | Compound | logP (Physical data, Table 1)
1 | CCn1ncc(C(=O)c2ccc(Cl)c(OCCn3nc(C)n(C)c3=O)c2C)c1OCc1ccc(Br)cc1 [Example 12] | logP = 2.07^a)
2 | CCn1ncc(C(=O)c2ccc(SC)c(OCCn3nc(C)n(C)c3=O)c2Cl)c1OCc1ccc(Br)cc1 [Example 14] | logP = 2.05^a)
3 | CCn1ncc(C(=O)c2ccc(Cl)c(OCCn3nc(OC)n(C)c3=O)c2Cl)c1O [Example 15] | logP = 1.69^a)
4 | CCn1ncc(C(=O)c2ccc(Cl)c(OCCn3nc(SC)n(C)c3=O)c2Cl)c1O [Example 16] | logP = 1.92^a)
5 | CCn1ncc(C(=O)c2ccc(Cl)c(OCCn3nc(OC)n(CC)c3=O)c2Cl)c1O [Example 17] | logP = 1.93^a)
6 | CCn1ncc(C(=O)c2ccc(Cl)c(OCCn3nc(COC)n(C)c3=O)c2Cl)c1O [Example 18] | logP = 1.62^a)
7 | COCc1nn(CCOc2c(Cl)ccc(C(=O)C3=C(O)CCCC3=O)c2Cl)c(=O)n1C [Example 19] | logP = 2.06^a)
8 | CCn1ncc(C(=O)c2ccc(SC)c(OC[C@@H]3CCC(=O)N3)c2Cl)c1O [Example 20] | (S enantiomer) logP = 1.60^a)
9 | CSc1nn(CCOc2c(Cl)ccc(C(=O)C3=C(O)CCCC3=O)c2Cl)c(=O)n1C [Example 21] | logP = 2.39^a)
10 | CCn1c(OC)nn(CCOc2c(Cl)ccc(C(=O)C3=C(O)CCCC3=O)c2Cl)c1=O [Example 22] | logP = 2.16^a)
11 | CSc1ccc(C(=O)C2=C(O)CCCC2=O)c(Cl)c1OC[C@@H]1CCC(=O)N1 [Example 24] | (S enantiomer) logP = 1.98^a)
12 | CCn1ncc(C(=O)c2ccc(Cl)c(OCCn3nc(OC)n(CC)c3=O)c2C)c1O [Example 25] | logP = 1.88^a)
13 | CCn1c(OC)nn(CCOc2c(Cl)ccc(C(=O)C3=C(O)CCCC3=O)c2C)c1=O [Example 26] | logP = 2.15^a)
14 | CCn1ncc(C(=O)c2ccc(Cl)c(OCCn3nc(SC)n(C)c3=O)c2C)c1O [Example 27] | logP = 2.11^a)
15 | CSc1nn(CCOc2c(Cl)ccc(C(=O)C3=C(O)CCCC3=O)c2C)c(=O)n1C [Example 28] | logP = 2.38^a)
16 | CCn1ncc(C(=O)c2ccc(Cl)c(OCCn3nc(OC)n(CC)c3=O)c2C)c1O [Example 29] | logP = 2.12^a)
17 | CCn1ncc(C(=O)c2ccc(Cl)c(OCCn3nc(COC)n(C)c3=O)c2C)c1O [Example 30] | logP = 1.78^a)
18 | CCn1c(OC)nn(CCOc2c(Cl)ccc(C(=O)C3=C(O)CCCC3=O)c2C)c1=O [Example 31] | logP = 2.38^a)
19 | COCc1nn(CCOc2c(Cl)ccc(C(=O)C3=C(O)CCCC3=O)c2C)c(=O)n1C [Example 32] | logP = 2.04^a)
20 | CCn1ncc(C(=O)c2ccc(SC)c(OCCn3nc(SC)n(C)c3=O)c2Cl)c1O [Example 33] | logP = 1.97^a)
21 | CSc1ccc(C(=O)C2=C(O)CCCC2=O)c(Cl)c1OCCn1nc(SC)n(C)c1=O [Example 34] | logP = 2.36^a)
22 | CCn1ncc(C(=O)c2ccc(Cl)c(OC[C@@H]3CCC(=O)N3)c2C)c1O [Example 35] | (S enantiomer) [α]D^20 = +2.3 logP = 1.67^a)
23 | Cc1c(C(=O)C2=C(O)CCCC2=O)ccc(Cl)c1OC[C@@H]1CCC(=O)N1 [Example 36] | (S enantiomer) logP = 1.94^a)
24 | CCn1ncc(C(=O)c2ccc(Cl)c(OC[C@@H]3CCC(=O)N3C)c2C)c1O [Example 37] | (S enantiomer) logP = 1.85^a)
25 | Cc1c(C(=O)C2=C(O)CCCC2=O)ccc(Cl)c1OC[C@@H]1CCC(=O)N1C [Example 38] | (S enantiomer) logP = 2.10^a)
26 | CN1C(=O)CC[C@H]1COc1c(Cl)ccc(C(=O)C2=C(O)CCCC2=O)c1Cl [Example 39] | (S enantiomer) logP = 2.12^a)
27 | CCn1ncc(C(=O)c2ccc(Cl)c(OC[C@@H]3CCC(=O)N3C)c2Cl)c1O [Example 40] | (S enantiomer) logP = 1.67^a)
